Measurements taken from patent US10842847B2, “Treatment of degenerative joint disease” (Ampio Pharmaceuticals, Inc., priority 2011, dated 2020).
Entries after “also recorded” stand apart in the source; their conditions may differ.

Test system: oxidized collagen IV
Test: Binding of DA-DKP and NAT to H2O2 treated collagen IV (LCMS of <5 kDa fraction)
Set-up: species or system human
Settings: for binding to oxidized collagen, result in words: equimolar concentration
Experimental: Collagen source: 1 mg/ml Collagen IV form human placenta in 0.25% acetic acid (Sigma™). The collagen was oxidixed with 500 μM H2O2 in 1×PBS for 1 hour at 37° C. The oxidized collagen IV (final=0.2 mg/ml) was then incubated with 2 μM DA-DKP or 2 NAT in PBS for 1 hour at 37° C. At the end of the incubation, the <5 kDa fraction was isolated by a VIVASPIN® 2 microcentrifugal filter having a molecular weight cutoff of 5,000. The <5 kDa fraction was analyzed for DA-DKP and/or NAT content using a liquid chromatograph-mass spectrometery (LCMS) method for DA-DKP analysis.

[1] = 2 μM + oxidized Collagen IV 0.2 mg/ml, 1 hour at 37° C., content of <5 kDa fraction

## C[C@@H]1NC(=O)[C@H](CC(=O)O)NC1=O [DA-DKP, aspartyl-alanyl diketopiperazine]
[1]
  Average % decrease: 26.0%
2 μM + oxidized Collagen IV w/2 μM NAT
  Average % decrease: 25.6%
  binding to oxidized collagen, result in words: bind to oxidized forms of collagen

## CC(=O)N[C@@H](Cc1c[nH]c2ccccc12)C(=O)O [NAT, N-acetyl-tryptophan]
[1]
  Average % decrease: 48.9%
2 μM + oxidized Collagen IV w/2 μM DA-DKP
  Average % decrease: 28.7%
  binding to oxidized collagen, result in words: binds more to oxidized collagen IV than DA-DKP; also recorded: bind to oxidized forms of collagen
